# Source: patent US7884067B2, “Peptides derived from cadherin and methods of use thereof” (Mount Sinai School of Medicine of New York University, priority 2001, dated 2011)
# Tests used:
# [1] = system: N-cadherin; assay: N-Cad/CTF2 production in rat primary neuronal cultures after stimulation; assay type: cell-based; set-up: N-Cad/CTF2 production on stimulation / K+-induced increase in N-Cad/CTF2 / L-glutamate-induced increase in N-Cad/CTF2: unit of the concentration uncertain; details: for N-Cad/CTF2 production on stimulation: 15 minutes stimulation with KCl (50 (unit uncertain)), L-Glutamate (50 (unit uncertain)) or NMDA (50 (unit uncertain))
# Experimental: Primary, neuronal cultures. Mixed hippocampal and cortical neuronal cultures were prepared from E18 mouse or rat brains as described by Banker and Goslin (1991) Culturing Nerves Cells, London, MIT Press. Neurons were maintained 10 days in vitro in glial conditioned MEM containing 2% glucose and N2 supplements as described by Bottenstein and Sato (1979) Proc. Natl. Acad. Sci. USA 76: 514-517, and then were stimulated for 15 minutes with Mg2+-free Hanks' balanced salt solution (HBSS, Sigma) containing KCl (50 mM), L-Glutamate ([…]) or NMDA ([…]). D-APV ([…]) was applied 15 minutes before stimulation.
# In vitro γ-secretase-like ε-cleavage assay. Cells were washed in PBS, resuspended in 1 ml of 4° C. hypotonic buffer (10 mM MOPS, pH 7.0, 10 mM KCl) and homogenized on ice. A post-nuclear supernatant was prepared by centrifugation at 1000×g for 15 minutes at 4° C. Crude membranes were isolated from the post-nuclear supernatant by centrifugation at 16,000×g for 40 minutes at 4° C. The membranes were then resuspended in […] of assay buffer (150 mM sodium citrate, pH 6.4, 1× Complete protease inhibitor cocktail), and incubated at 37° C. for 2 hours. Samples were either analyzed directly by WB or separated into pellet (P100) and supernatant (S100) fractions by ultracentrifugation for 1 hour at 100,000×g at 4° C. The S100 and P100 fractions were then analyzed by WB.
# Rat brain neurons were pre-incubated in the absence (−) or presence (+) of D-APV and then stimulated with either KCl, L-glutamate (L-gly) or NMDA. Membranes from these neurons were used in in vitro assays for production of N-Cad/CTF2.
# [2] = system: Aβ40 and Aβ42; assay: Secreted Aβ ELISA in CHO cells expressing Swedish APP mutant; assay type: cell-based; details: transient transfection, vs vector cDNA, FIG. 4B
# Experimental: CHO cells expressing Swedish APP mutant were transiently transfected with vector cDNA (vector), full length E-cadherin (E-cadherin), a cDNA construct encoding the transmembrane and ectodomain sequence of E-cadherin (EC0) or a cDNA expressing the entire cytoplasmic sequence of E-cadherin (CTF2). Secreted Aβ40 and Aβ42 were determined by ELISA. Each value is a mean±SD from three assays each performed in duplicate. […] Expression of transfected proteins in swCHO cells was monitored by Western blotting.
# [3] = system: E-cadherin; assay: E-cadherin cleavage in staurosporine-treated (apoptotic) A431 cells (Western blot); assay type: cell-based, human
# Experimental: Cell Cultures and transfections. Cells were grown in Dulbecco's Modified Eagle Medium (DMEM) plus 10% fetal bovine serum, penicillin and streptomycin in 5% CO2 at 37° C. […] A431 cells were from American Type Culture Collection. […] A431D cells stably transfected with wild-type or GGG759-761AAA mutant E-cadherin were provided by Dr. A. B. Reynolds.
# (§1) Immunoprecipitations (IPs), immunoblotting, immunofluorescence and confocal microscopy. For WB analysis of cell extracts, cells were washed with PBS and then solubilized in RIPA buffer. For IPs cells were solubilized in Hepes buffer (25 mM Hepes [pH 7.4], 150 mM NaCl, 1× Complete protease inhibitor cocktail, Roche) containing 1% digitonin (IPs with I-R222 and PI-R222 antibodies) or 1% Triton X-100 (IPs with β-catenin and desmoglein antibodies). Following centrifugation at 17,000×g for 10 min, supernatants (1 mg protein) were pre-cleared with protein A- or protein G-agarose (Pierce) for 2 hours. Supernatants were then incubated with antibodies overnight at 4° C. and treated for 2 hours with protein A-agarose (polyclonal antibodies) or with protein G-agarose (monoclonal antibodies). IPs were washed with Hepes buffer containing either 1% digitonin or 1% Triton X-100 and analyzed by SDS-PAGE. Immunofluorescence and confocal microscopy was performed as described by Georgakopoulos et al., (1999). Briefly, cells were plated on 22×22 mm collagen-coated glass coverslips, fixed in cold methanol for 10 min at −20° C. Following washing in TBS (25 mM Tris-HCl [pH 7.4], 150 mM NaCl), cells were treated with 10% goat serum in SuperBlock (Pierce) for 1 hour, incubated overnight with primary antibody (1:100), washed in TBS and then were incubated with species specific Alexa Fluor™ secondary antibody conjugates (Molecular Probes). Cells were washed with TBS, mounted with Prolong antifade kit (Molecular Probes), and photographed on a Leica confocal laser scanning microscope.
# Conditional media (20 μl) from A431 cells cultured in the absence or presence of […] and treated with SDS as above were probed on Western blots with anti-E-cadherin ectodomain antibody H108.
# [4] = system: N-cadherin; assay: N-cadherin processing in fibroblast cultures (Western blot, C32); assay type: cell-based, mouse; details: GM6001, FIG. 7B lanes 5 and 6
# Experimental: Extracts from PS1+/+ or PS1−/− mouse embryos were probed on WBs with either anti-cytoplasmic N-cadherin antibody (FIG. 7A, upper panel) or anti-PS I/CTF antibody 33B10 (FIG. 7A, lower panel). Extracts from PS1+/+ or PS1−/− fibroblast cultures were incubated for 16 hours in the absence or presence of DMSO, L-685,458 (0.5 μM) and probed on WBs with either C32 or 33B10 antibodies.
# [5] = system: E-cadherin/catenin cytoskeletal complex; assay: Ionomycin-induced CAJ disassembly in A431 cells, subcellular fractionation and Western blot; assay type: cell-based, human; details: ionomycin 10 μM, absence of inhibitor
# Experimental: Subcellular fractionation. Confluent A431 cells (one 100 mm dish) were rinsed and scraped with 4° C. phosphate-buffered saline (PBS). Cells were then placed into 1 ml of buffer A (20 mM Tris-HCl [pH 7.5], 0.25 M sucrose, 10 mM EGTA, 2 mM EDTA, 1× Complete protease inhibitor cocktail, Roche), passed through a 27 gauge needle 10 times, and the obtained cell lysate was centrifuged at 500×g for 10 min at 4° C. The supernatant was then centrifuged at 120,000×g for 45 min at 4° C. to separate the cytosolic and crude membrane fractions. The pellet (crude membrane fraction) was washed twice with buffer A and resuspended by sonication in […] of buffer A containing 1% Triton X-100. The suspension was incubated at 4° C. for 30 min and then centrifuged at 120,000×g for 45 min at 4° C. to separate the membrane and Triton X-100-insoluble fractions. The pellet (Triton X-100-insoluble fraction) was washed twice with buffer A and solubilized by sonication in RIPA buffer. […] of proteins from the different fraction were analyzed by SDS-PAGE.
# In stable cell-cell adhesion, the E-cadherin/β-catenin complex of the CAJ is anchored to the actin cytoskeleton via catenin and this association is manifested by the insolubility of the complex components in Triton X-100 (Baki et al., (2001)). Induction of apoptosis or calcium influx disrupts cadherin-mediated cell-cell adhesion by cleaving cadherin and disassembling the CAJ complexes. To determine whether the γ-secretase cleavage of E-cadherin is involved in the CAJ disassembly, calcium influx was induced with ionomycin (10 μM) in A431 cells preincubated for 30 minutes in the absence or presence of the γ-secretase inhibitor L-685,458. Cell extracts were fractionated, and analyzed on Western blots with antibodies against cytoplasmic E-cadherin C36 or β- and α-catenins. […] In addition, L-685,458 delayed the ionomycin-induced decrease of cytoskeletal β-catenin and α-catenin and inhibited their release to the soluble cytosol.
# [6] = system: A431 cells; assay: Laser scanning confocal microscopy of ionomycin-induced cell-cell dissociation; assay type: cell-based, human; details: ionomycin 45 minutes
# Experimental: as §1
# The PS1/γ-secretase role in the disassembly of CAJ was further examined using laser scanning confocal microscopy (LSCM). A431 cells were pre-incubated for 30 minutes in the absence or presence of L-685,458 and then treated for 45 minutes with ionomycin. Following the ionomycin-induced cell-cell dissociation, the distribution of PS1, E-cadherin, β-catenin and α-catenin was analyzed by LSCM using the constant detector setting. […]
# [7] = system: E-cadherin; assay: Ionomycin treatment of A431D cells transfected with WT or GGG759-761AAA mutant E-cadherin; assay type: cell-based; details: ionomycin 45 minutes
# Experimental: Cell Cultures and transfections. Cells were grown in Dulbecco's Modified Eagle Medium (DMEM) plus 10% fetal bovine serum, penicillin and streptomycin in 5% CO2 at 37° C. Fibroblast cell lines derived either from wild-type (WT) (PS1+/+) or PS1 knock-out (PS1−/−) mice were stably transfected with human E-cadherin as described by Baki et al., (2001). A431 cells were from American Type Culture Collection. Stable transfectants of PS1 cDNA in HEK293 cells were prepared as described by Georgakopoulos et al., (1999). A431D cells stably transfected with wild-type or GGG759-761AAA mutant E-cadherin were provided by Dr. A. B. Reynolds.
# A431D cells stably transfected with WT E-cadherin or with the E-cadherin mutant were incubated in the absence or presence of ionomycin for 45 minutes and RIPA extracts were probed on Western blots with C36 antibody. Cytosolic fractions were probed with antibodies against E-cadherin (C36), β-catenin or α-catenin. […] Furthermore, no soluble E-Cad/CTF2 was detected in mutant transfectants either in the presence or absence of ionomycin. Thus, PS1 binding to E-cadherin is required for the PS1/γ-secretase cleavage of E-cadherin and for the release of E-Cad/CTF2, β-catenin and α-catenin to the soluble cytosol.
compound,measurement,setting,value
D(−)-2-amino-5-phosphonovalerate [D-APV],K+-induced increase in N-Cad/CTF2,[1]; D-APV (100 (unit uncertain)) applied 15 minutes before stimulation with KCl,inhibited
same,L-glutamate-induced increase in N-Cad/CTF2,[1]; D-APV (100 (unit uncertain)) applied 15 minutes before stimulation with L-glutamate,blocked
CTF-2: cDNA expressing the entire cytoplasmic sequence of E-cadherin,secreted Aβ40,[2],significantly inhibited
same,secreted Aβ42,[2],significantly inhibited
CNC(=O)[C@H](Cc1c[nH]c2ccccc12)NC(=O)[C@@H](CC(=O)NO)CC(C)C [GM6001],production of the 38 kDa fragment (E-Cad/CTF1),"[3]; 30 minutes preincubation with GM6001 (2.5 μM), then STS 6 hours",inhibited
same,"secreted 95 kDa fragment (E-Cad/NTF1), effect of MMP inhibitor in STS-treated cells",[3]; antibody H108,inhibited
same,N-Cad/CTF1,[4],decreased
same,full length N-cadherin,[4],increased
"N[C@@H](CCC(=O)O)C(=O)O [L-glutamate, L-Glutamate]",N-Cad/CTF2 production on stimulation,[1],induced an increase in N-Cad/CTF2
Z-DEVD-FMK,29 kDa fragment (E-Cad/CTT3),"[3]; 30 minutes preincubation with Z-DEVD-FMK (50 μM), then STS 6 hours",inhibited
C[C@H](CCC(=O)O)C[C@H](C)C[C@H](C)C(=O)/C=C(\O)[C@H](C)C[C@H](C)C/C=C/[C@@H](C)[C@@H](O)[C@@H](C)[C@@H](O)C[C@@H]1CC[C@@](C)([C@H]2CC[C@@](C)([C@@H](C)O)O2)O1 [ionomycin],cytoskeletal (Triton X-100-insoluble) fraction of full-length E-cadherin and E-Cad/CTF1,[5],time-dependent decrease
same,cytoskeletal association (Triton X-100-insoluble fraction) of β-catenin and α-catenin,[5],decreased
same,soluble cytosolic E-Cad/CTF2,[5],corresponding increase
same,soluble cytosolic levels of β-catenin and α-catenin,[5],significant increase
same,cell-cell adhesion,[6],disrupted cell-cell adhesion
same,"plasma membrane staining of PS1, E-cadherin, β-catenin and α-catenin epitopes",[6],decreased plasma membrane staining of all epitopes
same,"soluble E-Cad/CTF2, β-catenin and α-catenin in cytosolic fractions",[7]; cells expressing WT E-cadherin,significant increase
same,soluble β- or α-catenin in cytosolic fractions,[7]; cells expressing mutant E-cadherin GGG759-761AAA,no ionomycin-induced increase
same,N-Cad/CTF2,[1]; treatment of rat primary neuronal cultures with ionomycin,increased N-Cad/CTF2
[Cl-].[K+] [KCl],N-Cad/CTF2 production on stimulation,[1],stimulated
